According to publication PMC8069214, “Synthesis, Biological Evaluation, and Molecular Modeling of Aza-Crown Ethers” (Molecules, 2021):
Counter-ions that a name gives are not always drawn. Like-named read-outs stand apart in the source and are kept apart here.

Assays:
human neutrophils [1] = experiment: Ca2+ mobilization assay, direct effect of compounds on [Ca2+]i; assay type: cell-based; conditions: Neutrophil; for Emax: % of the response induced by 5 nM fMLF, read-out: Efficacy (converted)
Description: We screened 24 aza- and diaza-crown ethers with adamantyl, adamantylalkyl, aminomethylbenzoyl, and ε-aminocaproyl substituents for their Ca^2+ ionophore effects in human neutrophils. To monitor cytoplasmic Ca^2+ levels, we used the fluorescent Ca^2+ indicator Fluo-4, which is a dynamic single-wavelength fluorescent Ca^2+ indicator. Increases in fluorescence intensity (λex = 485 nm, λem = 538 nm) reflect the rise in cytoplasmic Ca^2+ concentrations ([Ca^2+]i; see Materials and Methods).
(§1) Changes in neutrophil intracellular Ca^2+ concentrations ([Ca^2+]i) were measured with a FlexStation 3 scanning fluorometer (Molecular Devices, Sunnyvale, CA, USA). Briefly, human neutrophils were suspended in HBSS^−, loaded with Fluo-4AM at a final concentration of 1.25 μg/mL, and incubated for 30 min in the dark at 37 °C. After dye loading, the cells were washed with HBSS^−, resuspended in HBSS^+, separated into aliquots, and loaded into the wells of flat-bottom, half-area well black microtiter plates (2 × 10^5 cells/well). To assess the direct effects of test compounds on Ca^2+ flux, the compounds were added to the wells (final concentration of DMSO was 1%), and changes in fluorescence were monitored (λex = 485 nm, λem = 538 nm) every 5 s for 240 s at room temperature after addition of the test compound. To evaluate inhibitory effects of the compounds on FPR1/FPR2-dependent Ca^2+ flux, the compounds were added to the wells (final concentration of DMSO was 1%) with cells (human neutrophils or FPR1/FPR2 HL60 cells). The samples were preincubated for 10 min, followed by addition of 5 nM fMLF (for human neutrophils or FPR1-HL60 cells) or 5 nM WKYMVM (for FPR2-HL60 cells). The maximum change in fluorescence, expressed in arbitrary units over baseline, was used to determine the agonist response. Responses were normalized to the response induced by 5 nM fMLF or 5 nM WKYMVM, which were assigned as 100%. Curve fitting (at least five or six points) and calculation of median effective concentration values (EC50 or IC50) were performed by nonlinear regression analysis of the dose–response curves generated using Prism 7 (GraphPad Software, Inc., San Diego, CA, USA). Efficacy was determined by comparing individual responses activated by the test compounds to that induced by a positive control (5 nM fMLF), which was assigned a value of 100%.

human neutrophils [2] = experiment: Inhibition of fMLF-induced [Ca2+]i flux in human neutrophils; assay type: cell-based; conditions: Neutrophil, 10 min preincubation, 5 nM fMLF, N.A. = no activity at < 50 µM, read-out: FPR1/FPR2 Agonist-Induced Δ[Ca^2+]i Neutrophils IC50
Protocol: (§2) Since these compounds elevated neutrophil [Ca^2+]i, and cytosolic Ca^2+ flux is a key component of neutrophil activation, we evaluated if they could alter neutrophil activation by FPR1 or FPR2 agonists. Neutrophils and FPR-transfected HL60 cells were preincubated for 10 min with crown ether compounds, and [Ca^2+]i flux was stimulated with either an FPR1 agonist (fMLF for human neutrophils and FPR1-HL60 cells) or an FPR2 agonist (WKYMVM for FPR2-HL60 cells).
as §1

human neutrophils [3] = experiment: fMLF-induced neutrophil chemotaxis (ChemoTx chambers); assay type: cell-based; conditions: 1 h, 1 nM fMLF, 60 min migration
Protocol: Human neutrophils were suspended in HBSS^+ containing 2% (v/v) heat-inactivated fetal bovine serum (2 × 10^6 cells/mL), and effects of the compounds on fMLF-induced chemotaxis was analyzed in 96-well ChemoTx chemotaxis chambers (Neuroprobe, Gaithersburg, MD, USA). In brief, neutrophils were preincubated with the indicated concentrations of the test compounds or DMSO for 20 min at room temperature and added to the upper wells of the ChemoTx chemotaxis chambers. The lower wells were loaded with 30 µL of HBSS^+ containing 2% (v/v) fetal bovine serum and the indicated concentrations of test sample plus 1 nM fMLF, DMSO (negative control), or 1 nM fMLF as a positive control. Neutrophils were added to the upper wells and allowed to migrate through the 5.0-µm pore polycarbonate membrane filter for 60 min at 37 °C and 5% CO2. The number of migrated cells was determined by measuring ATP in lysates of transmigrated cells using a luminescence-based assay (CellTiter-Glo; Promega, Madison, WI, USA), and luminescence measurements were converted to absolute cell numbers by comparison of the values with standard curves obtained with known numbers of neutrophils. Curve fitting (at least eight to nine points) and calculation of median effective concentration values (IC50) were performed by nonlinear regression analysis of the dose-response curves generated using Prism 5.

FPR2 = target: T1, FPR2 (Homo sapiens, UniProt P25090); experiment: Inhibition of WKYMVM-induced [Ca2+]i flux in FPR2-HL60 cells; assay type: cell-based; conditions: 10 min preincubation, 5 nM WKYMVM; N.A. = no activity at < 50 µM; read-out: FPR1/FPR2 Agonist-Induced Δ[Ca^2+]i FPR2-HL60 IC50
T1 construct: expressed in transfected cells
T1 sequence (P25090 1-351): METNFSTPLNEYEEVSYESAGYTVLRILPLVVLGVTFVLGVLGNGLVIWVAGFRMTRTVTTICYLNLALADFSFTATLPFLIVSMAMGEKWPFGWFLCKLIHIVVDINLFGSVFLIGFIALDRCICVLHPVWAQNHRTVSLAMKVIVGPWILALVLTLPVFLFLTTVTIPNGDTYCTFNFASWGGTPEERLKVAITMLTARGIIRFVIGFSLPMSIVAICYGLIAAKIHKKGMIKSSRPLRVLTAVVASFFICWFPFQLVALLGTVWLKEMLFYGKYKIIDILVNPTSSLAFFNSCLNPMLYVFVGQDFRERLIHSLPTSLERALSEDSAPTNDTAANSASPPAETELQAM
Protocol: as §2
(§3) Human promyelocytic leukemia HL60 cells stably transfected with FPR1 (FPR1-HL60 cells) or FPR2 (FPR2-HL60 cells) (kind gifts from Dr. Marie-Josephe Rabiet, INSERM, Grenoble, France) were cultured in RPMI 1640 medium supplemented with 10% heat-inactivated fetal calf serum, 10 mM HEPES, 100 μg/mL streptomycin, 100 U/mL penicillin, and G418 (1 mg/mL). Although stable cell lines are cultured under G418 selection pressure, G418 may affect some assays, so it was removed in the last round of culture before assays were performed.
as §1

FPR1 = target: T2, FPR1 (Homo sapiens, UniProt P21462); experiment: Inhibition of fMLF-induced [Ca2+]i flux in FPR1-HL60 cells; assay type: cell-based; conditions: 10 min preincubation, 5 nM fMLF; N.A. = no activity at < 50 µM; read-out: FPR1/FPR2 Agonist-Induced Δ[Ca^2+]i FPR1-HL60 IC50
T2 construct: expressed in transfected cells
T2 sequence (P21462 1-350): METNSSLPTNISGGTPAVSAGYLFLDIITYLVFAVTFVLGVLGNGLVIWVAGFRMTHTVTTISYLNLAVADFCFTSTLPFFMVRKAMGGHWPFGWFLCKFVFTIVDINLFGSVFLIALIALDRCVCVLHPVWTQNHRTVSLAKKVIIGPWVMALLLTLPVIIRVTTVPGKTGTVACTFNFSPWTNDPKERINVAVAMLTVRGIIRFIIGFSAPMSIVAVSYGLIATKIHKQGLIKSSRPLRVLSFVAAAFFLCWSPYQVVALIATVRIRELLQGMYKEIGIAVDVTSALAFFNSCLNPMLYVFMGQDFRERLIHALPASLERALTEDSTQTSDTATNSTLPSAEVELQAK
Protocol: as §2, §3, §1

human neutrophils [4] = experiment: PMA-induced ROS production (L-012 chemiluminescence); assay type: cell-based; conditions: Neutrophil, 200 nM PMA, N.A. = no activity at < 50 µM
Description: To evaluate if the crown ethers could also disrupt GPCR-independent functional activity, we evaluated the effects of these compounds on phorbol 12-myristate 13-acetate (PMA)-stimulated reactive oxygen species (ROS) production. […] A representative concentration-dependent response for the inhibition of PMA-stimulated neutrophil ROS production by compound 15 is shown in Figure 2B. Since ROS production in neutrophils also requires increased [Ca^2+]i, the results again confirm that the impact of these compounds on Ca^2+ flux kinetics can alter neutrophil function.
ROS production was determined by monitoring L-012-enhanced chemiluminescence, which represents a sensitive and reliable method for detecting superoxide anion (O2^−.) production. Human neutrophils were resuspended at 2 × 10^5 cells/mL in HBSS^+ supplemented with 40 µM L-012. Cells (100 µL) were aliquoted into wells of 96-well flat-bottomed microtiter plates containing test compounds at different concentrations (final DMSO concentration of 1%). Cells were preincubated for 10 min, and 200 nM PMA was added to each well to stimulate ROS production. Luminescence was monitored for 120 min (2-min intervals) at 37 °C using a Fluroscan Ascent FL microtiter plate reader (Thermo Electron, Waltham, MA, USA). The curve of light intensity (in relative luminescence units) was plotted against time, and the area under the curve was calculated as total luminescence. The compound concentration that inhibited ROS production by 50% of the PMA-induced response (positive control) was determined by graphing the percentage inhibition of ROS production versus the logarithm of concentration of test sample (IC50). Each curve was determined using five to seven concentrations.

[5] = Homo sapiens, elevation of [Ca2+]i, Fluo-4, N.A. = no activity was found at concentration < 50 µM, read-out: EC50, effect on [Ca^2+]i flux in human neutrophils
[6] = reciprocal of EC50 in human neutrophils, inactive compounds assigned zero, read-out: 1/[EC50] (converted)

Row | SMILES | Emax (human neutrophils [1]; Homo sapiens) [%] | EC50 (human neutrophils [1]; [5]) [µM] | EC50 (human neutrophils [1]; [6]) [µM] | IC50 (human neutrophils [2]) [µM] | IC50 (human neutrophils [3]) [µM] | IC50 (FPR2) [µM] | IC50 (FPR1) [µM] | melting point [°C] | IC50 (human neutrophils [4]) [µM]
1 | O=C(N1CCOCCN(C(=O)C23CC4CC(CC(C4)C2)C3)CCOCC1)C12CC3CC(CC(C3)C1)C2 [Compound 12, N,N’-bis[1-oxo-1-(1-adamantyl)methyl]-4,10-diaza-12-crown-4] | 25 to 50 | 23.8 ± 7.6 | 23.8 | 4 ± 1.4 | 15.7 ± 4.2 |  |  |  | 
2 | O=C(N1CCOCCOCCN(C(=O)C23CC4CC(CC(C4)C2)C3)CCOCCOCC1)C12CC3CC(CC(C3)C1)C2 [Compound 16, N,N’-bis[1-oxo-1-(1-adamantyl)methyl]-4,13-diaza-18-crown-6] | 25 to 50 | 15.7 ± 3.8 | 15.7 | 3.4 ± 0.8 | 5.3 ± 0.4 | 30.7 ± 6.4 | 7.3 ± 2.6 |  | 
3 | O=C(CC12CC3CC(CC(C3)C1)C2)NC12CC3CC(CC(C3)C1)C2 [Compound 3, N,2-di(1-adamantyl)acetamide] |  |  |  |  |  |  |  | 242 to 244 | 
4 | O=C(CC12CC3CC(CC(C3)C1)C2)N1CCOCCOc2ccccc2OCCOCC1 [Compound 11, N-[2-(1-adamantyl)acetyl]benzoaza-15-crown-5] | 25 to 50 | 15.6 ± 4.4 | 15.6 | 9.4 ± 0.6 | 12.8 ± 5.3 | 29.1 ± 3.2 |  | 141 to 142 | 
5 | O=C(NC1CCCCC1)C12CC3CC(CC(C3)C1)C2 [Compound 4, N-cyclohexyladamantane-1-carboxamide] |  |  |  |  |  |  |  | 174 to 176 | 
6 | C1COCCN(CCC23CC4CC(CC(C4)C2)C3)CCOCCOCCN(CCC23CC4CC(CC(C4)C2)C3)CCO1 [Compound 21, N,N’-bis[2-(1-adamantyl)ethyl]-4,13-diaza-18-crown-6] | 25 to 50 | 11.3 ± 3.1 | 11.3 | 10.2 ± 2.6 |  | 28.2 ± 2.6 | 9.6 ± 2.1 |  | 15.3 ± 1.8
7 | O=C(N1CCOCCOc2ccccc2OCCOCC1)C12CC3CC(CC(C3)C1)C2 [Compound 10, N-[1-Oxo-1-(1-adamantyl)methyl]benzoaza-15-crown-5] | 25 to 50 | 9.7 ± 2.6 | 9.7 | 11.2 ± 2.7 |  | 36.4 ± 5.6 | 12.2 ± 1.9 | 111 to 113 | 
8 | O=C(CC12CC3CC(CC(C3)C1)C2)N1CCOCCOCCOCCOCC1 [Compound 8, N-[2-(1-adamantyl)acetyl]aza-15-crown-5] |  | 22.4 ± 4.3 | 22.4 | 2.6 ± 0.4 | 13.2 ± 3.8 |  | 37.1 ± 4.8 |  | 
9 | C1COCCN(CC23CC4CC(CC(C4)C2)C3)CCOCCN(CC23CC4CC(CC(C4)C2)C3)CCO1 [Compound 19, N,N’-bis[(1-adamantyl)methyl]-4,10-diaza-15-crown-5] |  |  |  |  |  |  |  | 74 to 78 | 
10 | O=C(NC12CC3CC(CC(C3)C1)C2)C12CC3CC(CC(C3)C1)C2 [Compound 2, N-(1-adamantyl)adamantane-1-carboxamide] |  |  |  |  |  |  |  | 255 to 257 | 
11 | NCCCCCC(=O)N1CCOCCOCCN(C(=O)CCCCCN)CCOCC1 (as salt: hydrochloride) [Compound 22, N,N’-bis(6-aminohexanoyl)-4,10-diaza-15-crown-5 dihydrochloride] |  |  |  |  |  |  |  | 114 to 118 | 
